Read-outs that look alike come from different tables or passages of the source. Starred links: 1 amine or outer side, 2 acyl side, 3 side chain; linkers in the order of their positions; H or OH if unused. Positions of bridges follow the written chain, without caps; N, C: chain ends. Non-standard residues stand in square brackets, D forms with d. Residues, ends and D or L forms follow the SMILES beside them. *: point of attachment. Phe(4-(CH2)5CO) = O=C([C@H](Cc1ccc(CCCCCC(=O)[*:3])cc1)N[*:1])[*:2]; Phe(3-(CH2)4CO) = O=C([C@H](Cc1cccc(CCCCC(=O)[*:3])c1)N[*:1])[*:2]; Phe(4-CF3) = N[C@@H](Cc1ccc(C(F)(F)F)cc1)C(=O)O; NMePhe(3-Cl) = CN[C@@H](Cc1cccc(Cl)c1)C(=O)O; NEtPhe = CCN[C@@H](Cc1ccccc1)C(=O)O; NMeF = CN[C@@H](Cc1ccccc1)C(=O)O; NMeI = CC[C@H](C)[C@H](NC)C(=O)O; NMeL = CN[C@@H](CC(C)C)C(=O)O; NMeV = CN[C@H](C(=O)O)C(C)C; NMeA = CN[C@@H](C)C(=O)O; Piperidide = C1CCN(*)CC1; β3hA = C[C@H](N)CC(=O)O; Sar = CNCC(=O)O; tBu = CC(C)(C)*
Key:
[1] = Metabolic stability in human hepatic microsome; format: in vitro ADME; details: microsomes
[2] = PAMPA (parallel artificial membrane permeability assay); format: in vitro ADME; details: for Papp at 18 hours, 50 µM: PAMPA
In short: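 Artificial membrane was 10% (w/v) egg lecithin plus 0.5% (w/v) cholesterol in dodecane on a PVDF filter. A 10 mM DMSO stock was added at 0.5% (v/v) to donor buffer (50 mM MOPSO, pH 6.5, 5.0% glycocholic acid). After 18 h at 37 °C, LC/MS or LC/UV gave donor and acceptor levels for Pe.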

[3] = pH 7.4, human hepatic microsome, NADPH(+), read-out: CL NADPH(+)
[4] = membrane permeation rate (Pe), 50 mM MOPSO buffer pH 6.5 with 5.0% glycocholic acid, 37° C., 18 hours, read-out: iPAMPA Pe

| Structure (SMILES) | microsomal CLint at 1 uM ([1]; human, pH 7.4, CL NADPH(+)) [µL/min/mg] | Papp at 18 hours, 50 µM ([2]; pH 6.5) [×10⁻⁶ cm/s] | microsomal CLint at 1 uM [1, 3] [µL/min/mg] | Papp at 18 hours, 50 µM [2, 4] [×10⁻⁶ cm/s] | iPAMPA Pe ([2]; membrane permeation rate (Pe), 50 mM MOPSO buffer pH 6.5 with 5.0% glycocholic acid, 37° C., 18 hours) |
| --- | --- | --- | --- | --- | --- |
| CC[C@H](C)[C@H]1C(=O)NCC(=O)N(C)[C@@H](C)C(=O)N[C@@H](CC(C)C)C(=O)N[C@@H](C)CC(=O)N(C)[C@@H](C)C(=O)N[C@@H](CC(C)C)C(=O)N(C)[C@@H](C)C(=O)N[C@@H]([C@@H](C)O)C(=O)N2CCC[C@H]2C(=O)N1C [DP-827] (cyclo(G[NMeA]L[β3hA][NMeA]L[NMeA]TP[NMeI])) | 49 | 5.8 | – | – | – |
| CC[C@H](C)[C@@H]1NC(=O)[C@H](CC(C)C)N(C)C(=O)[C@@H](C(C)C)NC(=O)C[C@H](C)NC(=O)[C@H](CC(C)C)N(C)C(=O)[C@H](C)N(C)C(=O)[C@H]([C@@H](C)O)NC(=O)[C@H](Cc2cccc(Cl)c2)N(C)C(=O)[C@H](C)N(C)C1=O [DP-828] (cyclo(I[NMeA][NMePhe(3-Cl)]T[NMeA][NMeL][β3hA][dV][NMeL])) | – | – | 154 | 42 | – |
| CC(C)C[C@@H]1NC(=O)[C@H](C)NC(=O)C[C@H](C)NC(=O)[C@H](C(C)C)N(C)C(=O)[C@H](CC(C)C)N(C)C(=O)[C@H]([C@@H](C)O)NC(=O)[C@H](Cc2ccc(C(F)(F)F)cc2)NC(=O)[C@H](C)N(C)C(=O)CNC(=O)[C@H](CC(C)C)N(C)C(=O)[C@H](C)N(C)C1=O [DP-829] (cyclo(AL[NMeA][NMeL]G[NMeA][Phe(4-CF3)]T[NMeL][NMeV][β3hA])) | – | – | 65 | 21 | – |
| C=C1CCC(=O)N(C)[C@@H](Cc2ccccc2)C(=O)N(C)CC(=O)N(C)[C@@H](CC(C)C)C(=O)N[C@@H]([C@@H](C)O)C(=O)N(C)[C@@H](C)C(=O)N(C)[C@@H](CC(C)C)C(=O)N(C)[C@@H]([C@@H](C)CC)C(=O)N[C@@H](COC(C)(C)C)C(=O)N[C@H](C(=O)N2CCCCC2)Cc2cccc1c2 [DP-831] | 683 | 55 | – | – | – |
| C=C1CCC(=O)N(C)[C@@H](Cc2ccccc2)C(=O)N(C)[C@@H](CC(C)C)C(=O)N[C@@H]([C@@H](C)CC)C(=O)N(C)[C@@H](C)C(=O)N(C)[C@@H](Cc2ccccc2)C(=O)N[C@@H]([C@@H](C)O)C(=O)N(C)[C@@H](C)C(=O)N(C)[C@@H](CC(C)C)C(=O)N[C@H](C(=O)N2CCCCC2)Cc2cccc1c2 [DP-834] | 501 | 14 | – | – | – |
| CC[C@H](C)[C@@H]1NC(=O)[C@H](CC(C)C)N(C)C(=O)[C@H](Cc2ccccc2)N(C)C(=O)CCCCc2cccc(c2)C[C@@H](C(=O)N2CCCCC2)NC(=O)[C@H](CC(C)C)N(C)C(=O)[C@H](C)N(C)C(=O)[C@H]([C@@H](C)O)NC(=O)[C@H](Cc2ccccc2)N(C)C(=O)[C@H](C)N(C)C1=O [DP-836] ([NMeF][NMeL]I[NMeA][NMeF]T[NMeA][NMeL][Phe(3-(CH2)4CO)]-Piperidide; lactam N-9) | – | – | 552 | 18 | – |
| CC(C)C[C@H]1C(=O)N[C@@H](COC(C)(C)C)C(=O)N(C)[C@@H](CC(C)C)C(=O)N[C@H](C(=O)N2CCCCC2)Cc2cccc(c2)CCCCC(=O)N(C)[C@@H](C)C(=O)N(C)[C@@H](Cc2ccccc2)C(=O)N(C)[C@@H](CC(C)C)C(=O)N[C@@H]([C@@H](C)O)C(=O)N(C)CC(=O)N1C [DP-838] ([NMeA][NMeF][NMeL]T[Sar][NMeL]S(tBu)[NMeL][Phe(3-(CH2)4CO)]-Piperidide; lactam N-9) | – | – | 224 | 54 | – |
| CC[C@H](C)[C@H]1C(=O)N(C)[C@@H](CC(C)C)C(=O)N[C@H](C(=O)N2CCCCC2)Cc2cccc(c2)CCCCC(=O)N[C@@H]([C@@H](C)O)C(=O)N(C)[C@@H](C)C(=O)N(C)[C@@H](Cc2ccccc2)C(=O)N(C)[C@@H](Cc2ccccc2)C(=O)N(C)[C@@H](CC(C)C)C(=O)NCC(=O)N1C [DP-840] (T[NMeA][NMeF][NMeF][NMeL]G[NMeI][NMeL][Phe(3-(CH2)4CO)]-Piperidide; lactam N-9) | – | – | 357 | 64 | – |
| CC(C)C[C@H]1C(=O)N[C@H](C(=O)N2CCCCC2)Cc2cccc(c2)CCCCC(=O)N[C@@H]([C@@H](C)O)C(=O)N(C)[C@@H](C)C(=O)N(C)[C@@H](Cc2ccccc2)C(=O)NCC(=O)N(C)[C@@H](Cc2ccccc2)C(=O)N(C)[C@@H](CC(C)C)C(=O)N(C)[C@@H](CC(C)C)C(=O)N1C [DP-843] (T[NMeA][NMeF]G[NMeF][NMeL][NMeL][NMeL][Phe(3-(CH2)4CO)]-Piperidide; lactam N-9) | – | – | 505 | 31 | – |
| CC(C)C[C@H]1C(=O)N[C@H](C(=O)N2CCCCC2)Cc2cccc(c2)CCCCC(=O)N(C)[C@@H](Cc2ccccc2)C(=O)NCC(=O)N(C)[C@@H](Cc2ccccc2)C(=O)N(C)[C@@H](CC(C)C)C(=O)N(C)[C@@H](CC(C)C)C(=O)N1C [DP-844] ([NMeF]G[NMeF][NMeL][NMeL][NMeL][Phe(3-(CH2)4CO)]-Piperidide; lactam N-7) | 356 | 11 | – | – | – |
| C=C1CCC(=O)N[C@@H](C)C(=O)N(C)[C@@H](CC(C)C)C(=O)N[C@@H]([C@@H](C)CC)C(=O)N(C)[C@@H](Cc2ccccc2)C(=O)N(C)[C@@H](CC(C)C)C(=O)N(C)[C@@H](C(C)C)C(=O)N[C@@H](Cc2ccccc2)C(=O)N[C@@H]([C@@H](C)O)C(=O)N[C@H](C(=O)N2CCCCC2)Cc2cccc1c2 [DP-846] | 310 | 3.4 | – | – | – |
| CC[C@H](C)[C@H]1C(=O)N(C)[C@@H](CC(C)C)C(=O)N(C)[C@@H](Cc2ccccc2)C(=O)N[C@@H](CC(C)C)C(=O)N(C)[C@@H](C(C)C)C(=O)N[C@@H](Cc2ccccc2)C(=O)N[C@@H]([C@@H](C)O)C(=O)N[C@H](C(=O)N2CCCCC2)Cc2ccc(cc2)CCCCCC(=O)N[C@@H](C)C(=O)N1C [DP-847] (A[NMeI][NMeL][NMeF]L[NMeV]FT[Phe(4-(CH2)5CO)]-Piperidide; lactam N-9) | – | – | 329 | 3.3 | – |
| CC(C)C[C@H]1C(=O)N[C@@H](COC(C)(C)C)C(=O)N(C)[C@@H](Cc2ccccc2)C(=O)N(C)[C@@H](C)C(=O)N[C@@H](Cc2ccccc2)C(=O)N(C)[C@@H](C(C)C)C(=O)N[C@H](C(=O)N2CCCCC2)Cc2ccc(cc2)CCCCCC(=O)N[C@@H]([C@@H](C)O)C(=O)NCC(=O)N1C [DP-848] (TG[NMeL]S(tBu)[NMeF][NMeA]F[NMeV][Phe(4-(CH2)5CO)]-Piperidide; lactam N-9) | – | – | 148 | 30 | – |
| CC[C@H](C)[C@H]1C(=O)N[C@@H](COC(C)(C)C)C(=O)N(C)[C@@H](Cc2ccccc2)C(=O)N(C)[C@@H](C(C)C)C(=O)N[C@H](C(=O)N2CCCCC2)Cc2ccc(cc2)CCCCCC(=O)N(C)[C@@H](Cc2ccccc2)C(=O)N[C@@H](CC(C)C)C(=O)N(C)[C@@H](CC(C)C)C(=O)N[C@@H]([C@@H](C)O)C(=O)N(C)CC(=O)N1C [DP-852] ([NMeF]L[NMeL]T[Sar][NMeI]S(tBu)[NMeF][NMeV][Phe(4-(CH2)5CO)]-Piperidide; lactam N-10) | – | – | 484 | 0.7 | – |
| CC[C@H](C)[C@H]1C(=O)N[C@@H]([C@@H](C)O)C(=O)N(C)CC(=O)N(C)[C@@H](CC(C)C)C(=O)N[C@H](C(=O)N2CCCCC2)Cc2ccc(cc2)CCCCCC(=O)N[C@@H](CC(C)C)C(=O)N(C)[C@@H](CC(C)C)C(=O)N(C)[C@@H](Cc2ccccc2)C(=O)N[C@@H](C)C(=O)N(C)[C@@H](Cc2ccccc2)C(=O)N1C [DP-856] (L[NMeL][NMeF]A[NMeF][NMeI]T[Sar][NMeL][Phe(4-(CH2)5CO)]-Piperidide; lactam N-10) | – | – | 183 | 0.44 | – |
| CC(C)C[C@H]1C(=O)N(C)[C@@H](CC(C)C)C(=O)N[C@@H](C)C(=O)N(C)[C@@H](CC(C)C)C(=O)N(C)[C@@H](Cc2ccccc2)C(=O)N(C)[C@@H](Cc2ccccc2)C(=O)N[C@@H]([C@@H](C)O)C(=O)N(C)[C@@H](C)C(=O)N(C)[C@@H](CC(C)C)C(=O)N[C@H](C(=O)N2CCCCC2)Cc2ccc(cc2)CCCCCC(=O)N1C [DP-858] ([NMeL][NMeL]A[NMeL][NMeF][NMeF]T[NMeA][NMeL][Phe(4-(CH2)5CO)]-Piperidide; lactam N-10) | – | – | 77 | 1 | – |
| CC[C@H](C)[C@@H]1NC(=O)[C@H](Cc2ccccc2)N(C)C(=O)CCCCCc2ccc(cc2)C[C@@H](C(=O)N2CCCCC2)NC(=O)[C@H](C(C)C)N(C)C(=O)[C@H](Cc2ccccc2)N(C)C(=O)[C@H](COC(C)(C)C)NC(=O)[C@H](CC(C)C)N(C)C(=O)CN(C)C(=O)[C@H]([C@@H](C)O)NC(=O)[C@H](CC(C)C)N(C)C1=O [DP-861] ([NMeF]I[NMeL]T[Sar][NMeL]S(tBu)[NMeF][NMeV][Phe(4-(CH2)5CO)]-Piperidide; lactam N-10) | – | – | 320 | 2.9 | – |
| CC[C@H](C)[C@@H]1NC(=O)[C@H](CC(C)C)N(C)C(=O)CCCCc2cccc(c2)C[C@@H](C(=O)N2CCCCC2)NC(=O)[C@H](CC(C)C)N(C)C(=O)[C@H](C)N(C)C(=O)[C@H]([C@@H](C)O)NC(=O)[C@H](CC(C)C)N(C)C(=O)[C@H](COC(C)(C)C)NC(=O)[C@H](Cc2ccccc2)N(C)C(=O)[C@H](Cc2ccccc2)N(C)C1=O [DP-862] ([NMeL]I[NMeF][NMeF]S(tBu)[NMeL]T[NMeA][NMeL][Phe(3-(CH2)4CO)]-Piperidide; lactam N-10) | – | – | 118 | – | 1.0E−07 |
| CCN1C(=O)CCCCc2cccc(c2)C[C@@H](C(=O)N2CCCCC2)NC(=O)[C@H](CC(C)C)N(C)C(=O)CN(C)C(=O)[C@H]([C@@H](C)O)NC(=O)[C@H](CC(C)C)N(C)C(=O)[C@H](Cc2ccccc2)N(C)C(=O)[C@H](C)NC(=O)[C@@H]1Cc1ccccc1 [DP-863] ([NEtPhe]A[NMeF][NMeL]T[Sar][NMeL][Phe(3-(CH2)4CO)]-Piperidide; lactam N-8) | 927 | 35 | – | – | – |

Reference: patent US9409952B2, “Peptide-compound cyclization method” (Chugai Seiyaku Kabushiki Kaisha, priority 2011, dated 2016)
